Test results published in patent publication US20260209249A1, “NOVEL TRICYCLIC COMPOUND AS KRAS G12D INHIBITOR, AND USE THEREOF” (SK Biopharmaceuticals Co., priority 2022, published 2026).

Experiments:
[1] = molecular target: T1, GDP-KRAS G12D mutant protein (Homo sapiens, UniProt P01116, G12D); assay: Differential scanning fluorimetry (DSF) binding affinity to GDP-KRAS G12D mutant protein; details: DSF thermal shift, 10 μM compound, 4 μg KRAS protein
T1 construct: purchased Daegu Gyeongbuk Medical Innovation Foundation (DGMIF), made to order
Method in brief: (§1)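 Each sample held 4 μg recombinant KRAS G12D (GDP- or GppNHp-bound) and 10 μM compound, incubated 30 min at room temperature before adding 2× SYPRO Orange. The GDP form was run in kit buffer, the GppNHp form in 50 mM HEPES pH 7.5. Melt was 25–99 °C at 0.05 °C/s (580/623 nm), reported as ΔTm versus no compound.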

[2] = system: ERK phosphorylation (pERK) induced by KRAS G12D mutation; assay: Inhibitory activity against ERK phosphorylation (pERK) induced by KRAS G12D mutation, immunofluorescence assay in AsPC-1 cells; type: cell-based; details: Homo sapiens, ASPC1, 3 h drug treatment, pERK (Thr202/Tyr204) signal normalized to DAPI
Source text: Test Example 2: Measurement of Inhibitory Activity Against ERK Phosphorylation (pERK) Induced by KRAS G12D Mutation (Immunofluorescence Assay)
Immunofluorescence is a method used to detect specific substances within cells or tissues through antigen-antibody interactions, and allows for the identification of the presence or absence of specific proteins by using antibodies labeled with various fluorescent dyes. After a primary antibody that recognizes a specific protein selectively binds to the epitope, a fluorescent antibody (secondary antibody) is bound to the primary antibody.
It was confirmed as follows that the compounds according to an embodiment of the present application inhibit phosphorylation of extracellular signal-regulated kinases (Phospho-ERK, pERK) induced by KRAS G12D mutation.
AsPC-1 cells were seeded at a density of 10,000 cells/well in RPMI-1640 medium containing 10% FBS and 1% Penicillin-Streptomycin in 384-well plates (Perkinelmer, #6057300) and allowed to attach for 16 h. After the cells attached to the plate, the cells were treated with drugs at a maximum concentration of 10 μM with a 3-fold serial dilution. After 3 h of drug treatment, the medium was removed and the cells were treated with 50 μL of 4% formaldehyde (Biosesang, #PC2031-050-00) for 20 min and washed three times with 50 μL of phosphate buffered saline (PBS).
50 μL of PBS containing 0.3% Triton X-100 (Sigma, #T8787-250 mL) was added and reacted for 20 minutes to allow antibody penetration into cells, and then the plate was washed three times with 50 μL of PBS. To block nonspecific binding of antibodies to the plate, 50 μL of PBS containing 2% BSA (sigma, #A7906-500G) and 0.01% Tween-20 (Sigma, #P1379-500 mL) (hereinafter referred to as PBS-T) was added, and reacted at room temperature for 2 hours.
To detect pERK, the primary antibody (cell signaling, #9101) was diluted 1:500 in PBS-T containing 2% BSA, 50 μL was added, and the plate was stored in a refrigerator at 4° C. for 16 hours to react, followed by washing three times with 50 μL of PBS-T. To visualize the primary antibody, the secondary antibody, i.e., anti-rabbit-Alexa Fluor 488 (ThermoFisher, #A11008), was diluted 1:1000 in PBS-T containing 2% BSA, 50 μL was added, and after reaction at room temperature for 1 hour, the plate was washed three times with 50 μL of PBS-T. Next, to visualize the nuclei of cells, DAPI (Thermofisher, #62248, 1 mg/mL) was diluted 1:1000 in PBS-T, 50 μL each was added, reacted at room temperature for 10 minutes, and washed three times with 50 μL of PBS-T. 50 μL of PBS-T was added to each well, and the plate was read for fluorescence value using HCS equipment (MOLECULAR DEVICES/ImageXpress Micro).
Data analysis was performed by normalizing the pERK (Thr202/Tyr204) signal to the DAPI signal and calculating the percentage relative to the DMSO as a control. The IC50 value was determined by fitting a four-parameter dose-response curve using the GraphPad Prism software (version 8.4.3), and interpolating the concentration at which 50% inhibition occurred. The results of calculating the inhibitory efficacy of the compounds according to one embodiment of the present application against KRAS G12D mutation-induced pERK activity are shown in Table 3.

[3] = system: KRAS G12D mutant pancreatic cancer cell line AsPC-1; assay: Cell viability assay using KRAS G12D mutant cells (AsPC-1, 3D culture, celltiter-glo 3D); type: cell-based; details: Homo sapiens, ASPC1, 5th day after compound treatment
Description: Test Example 3: Cell Viability Assay Using KRAS G12D Mutant Cells
The KRAS G12D mutant pancreatic cancer cell line AsPC-1 was obtained from the Korean Cell Line Bank (KCLB) and maintained in 100-mm dishes or T75 (75 cm^2) flasks using RPM11640+10% fetal bovine serum (FBS)+1% Penicillin-Streptomycin medium. The cells were cultured at 37° C. with 5% CO2. The number of viable cells was counted using Countess (Invitrogen).
When AsPC-1 cells reached 85-100% confluence in the flask, the cells were harvested using 1× trypsin/EDTA solution, and seeded into a 96-well plate for 3D culture at 1000 cells/100 μL/well. The next day, the compounds were diluted ⅕ with DMSO from 10 μM or 50 μM to 0.0001 μM or 0.0006 μM and treated 1:1 (v/v) in the plate where the cells were seeded.
Cell culture was terminated on the 5th day after compound treatment, and cell viability at each concentration was measured using the celltiter-glo 3D cell viability assay kit.
Cell viability assays were normalized to 100% for the DMSO-treated group and expressed as a percentage of the number of viable cells when treated with the compound.
Cell viability %=(average RLU of group treated with test substance−average RLU of untreated group)/(average RLU of group treated with DMSO−average RLU of untreated group)×100
The data were modeled using GraphPad Prism 9 (GraphPad Software) by applying a nonlinear regression curve fit with a four-parameter sigmoidal dose-response curve to determine cell viability as a function of compound concentration. The 50% inhibitory concentration (IC50) corresponds to the concentration at which the curve intersects the midpoint of cell viability. The results of the inhibitory effect of the compounds according to one embodiment of the present application on the viability of KRAS G12D mutant cells are presented in Table 4.

[4] = molecular target: T2, GppNHp-KRAS G12D mutant protein (Homo sapiens, UniProt P01116, G12D); assay: Differential scanning fluorimetry (DSF) binding affinity to GppNHp-KRAS G12D mutant protein; details: DSF thermal shift, 10 μM compound, 4 μg KRAS protein, 50 mM HEPES (pH 7.5)
T2 construct: purchased Daegu Gyeongbuk Medical Innovation Foundation (DGMIF), made to order
Method in brief: as §1

SMILES | GDP-KRAS G12D (ΔTmD, ° C.) [1] [°C] | IC50 [2] [nM] | IC50 [3] [nM] | GppNHp-KRAS G12D (ΔTmD, ° C.) [4] [°C]
C#Cc1c(F)ccc2cc(O)cc(-c3cc4nc(OCC5(CN6CCC7(CC6)CC7(F)F)CC5)nc(N5C[C@H]6CC[C@@H](C5)N6)c4c4cn(C)nc34)c12 [Example 73, 4-(9-((1R,5S)-3,8-diazabicyclo[3.2.1]octan-3-yl)-7-((1-((1,1-difluoro-6-azaspiro[2.5]octan-6-yl)methyl)cyclopropyl)methoxy)-2-methyl-2H-pyrazolo[4,3-f]quinazolin-4-yl)-5-ethynyl-6-fluoronaphthalen-2-ol] | 11.97 | 49 | 37 | 5.60
C#Cc1c(F)ccc2cc(O)cc(-c3cc4nc(OCC5(CN6CC[C@@H](F)C6)CC5)nc(N5[C@@H]6CC[C@H]5CNC6)c4n4ccnc34)c12 [Example 16, 4-(1-((1R,5S)-3,8-diazabicyclo[3.2.1]octan-8-yl)-3-((1-(((R)-3-fluoropyrrolidin-1-yl)methyl)cyclopropyl)methoxy)imidazo[1′,2′:1,6]pyrido[3,2-d]pyrimidin-6-yl)-5-ethynyl-6-fluoronaphthalen-2-ol] | 9.01 | 176 | 94 | 4.27
C#Cc1c(F)ccc2cc(O)cc(-c3cc4nc(OCC5(CN6CCOC[C@H]6C)CC5)nc(N5C[C@H]6CC[C@@H](C5)N6)c4n4ccnc34)c12 [Example 8, 4-(1-((1 R,5S)-3,8-diazabicyclo[3.2.1]octan-3-yl)-3-((1-(((R)-3-methylmorpholino)methyl)cyclopropyl)methoxy)imidazo[1′,2′:1,6]pyrido[3,2-d]pyrimidin-6-yl)-5-ethynyl-6-fluoronaphthalen-2-ol] | 9.02 | 149 | 50 | 3.39
Cc1cc2c(o1)c(-c1cc(O)cc3ccc(F)c(F)c13)c(F)c1nc(OC[C@@]34CCCN3C[C@H](F)C4)nc(N3C[C@H]4CC[C@@H](C3)N4)c12 [Example 46, 4-(1-((1R,5S)-3,8-diazabicyclo[3.2.1]octan-3-yl)-5-fluoro-3-(((2R,7aS)-2-fluorotetrahydro-1H-pyrrolizin-7a(5H)-yl)methoxy)-8-methylfuro[3,2-n]quinazolin-6-yl)-5,6-difluoronaphthalen-2-ol] |  | 45 | 25 | 
C#Cc1c(F)ccc2cc(O)cc(-c3c(F)c4nc(OC[C@]56CC(=C)CN5C[C@@H](F)C6)nc(N5C[C@H]6CC[C@@H](C5)N6)c4c4cn(C)nc34)c12 [Example 100, 4-(9-((1 R,5S)-3,8-diazabicyclo[3.2.1]octan-3-yl)-5-fluoro-7-(((2S,7aR)-2-fluoro-6-methylenetetrahydro-1H-pyrrolizin-7a(5H)-yl)methoxy)-2-methyl-2H-pyrazolo[4,3-n]quinazolin-4-yl)-5-ethynyl-6-fluoronaphthalen-2-ol] | 14.50 |  | 29 | 8.92
CCc1c(F)ccc2cc(O)cc(-c3c(F)c4nc(OC[C@@]56CCCN5C[C@H](F)C6)nc(N5C[C@H]6CC[C@@H](C5)N6)c4c4cc(C)oc34)c12 [Example 45, 4-(1-((1R,5S)-3,8-diazabicyclo[3.2.1]octan-3-yl)-5-fluoro-3-(((2R,7aS)-2-fluorotetrahydro-1H-pyrrolizin-7a(5H)-yl)methoxy)-8-methylfuro[3,2-n]quinazolin-6-yl)-5-ethyl-6-fluoronaphthalen-2-ol] |  | 70 | 37 | 
C#Cc1c(F)ccc2cc(O)cc(-c3c(F)c4nc(OC[C@@]56CCCN5C[C@H](F)C6)nc(NCC5(N(C)C)CCC5)c4c4cc(C)oc34)c12 [Example 48, 4-(1-(((1-(dimethylamino)cyclobutyl)methyl)amino)-5-fluoro-3-(((2R,7aS)-2-fluorotetrahydro-1H-pyrrolizin-7a(5H)-yl)methoxy)-8-methylfuro[3,2-n]quinazolin-6-yl)-5-ethynyl-6-fluoronaphthalen-2-ol] |  | 333 | 136 | 
C#Cc1c(F)ccc2cc(O)cc(-c3c(F)c4nc(OCC5(CN6CC[C@@H](F)C6)CCC5)nc(N5C[C@H]6CC[C@@H](C5)N6)c4c4cn(C)nc34)c12 [Example 98, 4-(9-((1R,5S)-3,8-diazabicyclo[3.2.1]octan-3-yl)-5-fluoro-7-((1-(((R)-3-fluoropyrrolidin-1-yl)methyl)cyclobutyl)methoxy)-2-methyl-2H-pyrazolo[4,3-f]quinazolin-4-yl)-5-ethynyl-6-fluoronaphthalen-2-ol] | 11.43 |  | 110 | 5.79
C#Cc1c(F)ccc2cc(N)cc(-c3c(F)c4nc(OC[C@@]56CCCN5CC(=C(F)F)C6)nc(N5C[C@H]6CC[C@@H](C5)N6)c4c4cn(C)nc34)c12 [Example 99, 4-(9-((1R,5S)-3,8-diazabicyclo[3.2.1]octan-3-yl)-7-(((S)-2-(difluoromethylene)tetrahydro-1H-pyrrolizin-7a(5H)-yl)methoxy)-5-fluoro-2-methyl-2H-pyrazolo[4,3-f]quinazolin-4-yl)-5-ethynyl-6-fluoronaphthalen-2-amine] | 11.13 |  | 27 | 7.27
CCc1c(F)ccc2cc(O)cc(-c3c(F)c4nc(OC[C@@]56CCCN5CC(=C(F)F)C6)nc(N5C[C@H]6CC[C@@H](C5)N6)c4c4cn(C)nc34)c12 [Example 97, 4-(9-((1R,5S)-3,8-diazabicyclo[3.2.1]octan-3-yl)-7-(((S)-2-(difluoromethylene)tetrahydro-1H-pyrrolizin-7a(5H)-yl)methoxy)-5-fluoro-2-methyl-2H-pyrazolo[4,3-f]quinazolin-4-yl)-5-ethyl-6-fluoronaphthalen-2-ol] | 14.20 |  | 7 | 8.42
